# Measurements published in BigSolDB 2.1.
smiles,measurement,setting,value
O=P(Oc1ccccc1)(Oc1ccccc1)N1CCN(P(=O)(Oc2ccccc2)Oc2ccccc2)CC1,solubility (mole fraction),"in THF, 293.15 K",0.00109
same,solubility (mole fraction),"in THF, 298.15 K",0.00143
same,solubility (mole fraction),"in THF, 303.15 K",0.00183
same,solubility (mole fraction),"in THF, 308.15 K",0.00236
same,solubility (mole fraction),"in THF, 313.15 K",0.00301
same,solubility (mole fraction),"in THF, 318.15 K",0.00375
same,solubility (mole fraction),"in THF, 323.15 K",0.00493
same,solubility (mole fraction),"in THF, 328.15 K",0.00605
same,solubility (mole fraction),"in THF, 333.15 K",0.00766
same,solubility (mole fraction),"in acetone, 293.15 K",0.000424
same,solubility (mole fraction),"in acetone, 298.15 K",0.000489
same,solubility (mole fraction),"in acetone, 303.15 K",0.000559
same,solubility (mole fraction),"in acetone, 308.15 K",0.000631
same,solubility (mole fraction),"in acetone, 313.15 K",0.000717
same,solubility (mole fraction),"in acetone, 318.15 K",0.000795
same,solubility (mole fraction),"in acetone, 323.15 K",0.000901
same,solubility (mole fraction),"in benzene, 293.15 K",0.00268
same,solubility (mole fraction),"in benzene, 298.15 K",0.00319
same,solubility (mole fraction),"in benzene, 303.15 K",0.00385
same,solubility (mole fraction),"in benzene, 308.15 K",0.00458
same,solubility (mole fraction),"in benzene, 313.15 K",0.00549
same,solubility (mole fraction),"in benzene, 318.15 K",0.00632
same,solubility (mole fraction),"in benzene, 323.15 K",0.00724
same,solubility (mole fraction),"in benzene, 328.15 K",0.00834
same,solubility (mole fraction),"in benzene, 333.15 K",0.00972
same,solubility (mole fraction),"in benzene, 338.15 K",0.0112
same,solubility (mole fraction),"in benzene, 343.15 K",0.0129
same,solubility (mole fraction),"in chloroform, 293.15 K",0.0132
same,solubility (mole fraction),"in chloroform, 298.15 K",0.0146
same,solubility (mole fraction),"in chloroform, 303.15 K",0.0162
same,solubility (mole fraction),"in chloroform, 308.15 K",0.0183
same,solubility (mole fraction),"in chloroform, 313.15 K",0.0202
same,solubility (mole fraction),"in chloroform, 318.15 K",0.0223
same,solubility (mole fraction),"in chloroform, 323.15 K",0.0245
same,solubility (mole fraction),"in dichloromethane, 288.15 K",0.00585
same,solubility (mole fraction),"in dichloromethane, 293.15 K",0.00725
same,solubility (mole fraction),"in dichloromethane, 298.15 K",0.00878
same,solubility (mole fraction),"in dichloromethane, 303.15 K",0.0106
same,solubility (mole fraction),"in dichloromethane, 308.15 K",0.013
same,solubility (mole fraction),"in ethanol, 293.15 K",0.000495
same,solubility (mole fraction),"in ethanol, 298.15 K",0.000613
same,solubility (mole fraction),"in ethanol, 303.15 K",0.000746
same,solubility (mole fraction),"in ethanol, 308.15 K",0.000946
same,solubility (mole fraction),"in ethanol, 313.15 K",0.00113
same,solubility (mole fraction),"in ethanol, 318.15 K",0.00134
same,solubility (mole fraction),"in ethanol, 323.15 K",0.00158
same,solubility (mole fraction),"in ethanol, 328.15 K",0.00186
same,solubility (mole fraction),"in ethanol, 333.15 K",0.00221
same,solubility (mole fraction),"in ethanol, 338.15 K",0.00269
same,solubility (mole fraction),"in ethanol, 343.15 K",0.0032
same,solubility (mole fraction),"in ethyl acetate, 293.15 K",0.000826
same,solubility (mole fraction),"in ethyl acetate, 298.15 K",0.00103
same,solubility (mole fraction),"in ethyl acetate, 303.15 K",0.00122
same,solubility (mole fraction),"in ethyl acetate, 308.15 K",0.00158
same,solubility (mole fraction),"in ethyl acetate, 313.15 K",0.00194
same,solubility (mole fraction),"in ethyl acetate, 318.15 K",0.00242
same,solubility (mole fraction),"in ethyl acetate, 323.15 K",0.00301
same,solubility (mole fraction),"in ethyl acetate, 328.15 K",0.0036
same,solubility (mole fraction),"in ethyl acetate, 333.15 K",0.00437
same,solubility (mole fraction),"in ethyl acetate, 338.15 K",0.00521
same,solubility (mole fraction),"in ethyl acetate, 343.15 K",0.00614
same,solubility (mole fraction),"in methanol, 293.15 K",3.28e-05
same,solubility (mole fraction),"in methanol, 298.15 K",5.77e-05
same,solubility (mole fraction),"in methanol, 303.15 K",9.84e-05
same,solubility (mole fraction),"in methanol, 308.15 K",0.000156
same,solubility (mole fraction),"in methanol, 313.15 K",0.000251
same,solubility (mole fraction),"in methanol, 318.15 K",0.000415
same,solubility (mole fraction),"in methanol, 323.15 K",0.000656
same,solubility (mole fraction),"in toluene, 293.15 K",0.000506
same,solubility (mole fraction),"in toluene, 298.15 K",0.000616
same,solubility (mole fraction),"in toluene, 303.15 K",0.000782
same,solubility (mole fraction),"in toluene, 308.15 K",0.000986
same,solubility (mole fraction),"in toluene, 313.15 K",0.00124
same,solubility (mole fraction),"in toluene, 318.15 K",0.00148
same,solubility (mole fraction),"in toluene, 323.15 K",0.00178
same,solubility (mole fraction),"in toluene, 328.15 K",0.00213
same,solubility (mole fraction),"in toluene, 333.15 K",0.00251
same,solubility (mole fraction),"in toluene, 338.15 K",0.00313
same,solubility (mole fraction),"in toluene, 343.15 K",0.00371
